From ChEMBL document CHEMBL1949630, “Discovery of benzodihydroisofurans as novel, potent, bioavailable and brain-penetrant prolylcarboxypeptidase inhibitors” (Bioorg Med Chem Lett, 2012)
Active and inactive are the calls of the source. The calls are words filed in the database; no cut-off is given here.

Experiments:
[1] = target: T1, Lysosomal Pro-X carboxypeptidase (Mus musculus) (UniProt Q7TMR0); experiment: Inhibition of mouse PrCP in 30 mg/kg, po qd for 5 days established diet-induced obese wild type C57BL/6 mouse heat inactivated plasma measured on day 6; assay type: organism-based; set-up: dose 30 mg/kg; conditions: at 30 mg/kg
T1 sequence (whole entry): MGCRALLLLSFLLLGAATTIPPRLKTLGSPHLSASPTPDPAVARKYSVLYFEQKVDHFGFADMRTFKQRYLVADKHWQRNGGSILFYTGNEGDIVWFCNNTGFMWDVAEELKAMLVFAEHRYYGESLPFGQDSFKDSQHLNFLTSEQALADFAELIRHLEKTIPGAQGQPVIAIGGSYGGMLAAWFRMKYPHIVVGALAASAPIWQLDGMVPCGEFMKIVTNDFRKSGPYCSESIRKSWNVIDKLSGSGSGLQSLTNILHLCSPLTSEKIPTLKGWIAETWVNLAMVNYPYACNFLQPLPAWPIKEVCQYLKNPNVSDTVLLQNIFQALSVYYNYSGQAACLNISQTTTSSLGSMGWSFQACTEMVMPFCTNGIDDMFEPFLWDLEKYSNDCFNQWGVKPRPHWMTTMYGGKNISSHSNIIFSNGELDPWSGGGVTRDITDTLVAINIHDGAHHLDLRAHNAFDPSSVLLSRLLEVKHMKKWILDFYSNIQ

Mus musculus [2] = experiment: Antiobesity activity in established diet-induced obese C57BL/6 mouse assessed as reduction of body weight at 30 mg/kg, po qd for 5 days; assay type: functional, organism-based; set-up: dose 30 mg/kg
[3] = Drug uptake in established diet-induced obese C57BL/6 mouse blood at 10 mg/kg, po qd for 2 days; assay type: ADME, organism-based; set-up: dose 10 mg/kg, route oral; conditions: read-out: Drug uptake
[4] = Fraction unbound in human plasma; assay type: ADME, cell-free
[5] = Ratio of drug level in brain to plasma in p-gp-/- mouse at 3 mg/kg, po after 4 hrs; assay type: ADME, organism-based; set-up: dose 3 mg/kg, route oral; conditions: brain and plasma, read-out: BPR
[6] = Drug uptake in established diet-induced obese C57BL/6 mouse brain at 3 mg/kg, po qd for 2 days; assay type: ADME, organism-based; set-up: dose 3 mg/kg, route oral; conditions: read-out: Drug uptake
Mus musculus [7] = experiment: Antiobesity activity in PrCP knockout mouse assessed as reduction of body weight at 30 mg/kg, po qd for 5 days; assay type: functional, organism-based; set-up: dose 30 mg/kg
[8] = target: T2, Lysosomal Pro-X carboxypeptidase (Mus musculus, UniProt Q7TMR0); experiment: Inhibition of PrCP in mouse plasma assessed as angiotensin 3 cleavage by whole serum shift assay
T2 sequence (Q7TMR0 whole entry): T1 sequence (whole entry)

[9] = Clearance in rat at 1 mg/kg, iv and 2 mg/kg, po by LC/MS/MS analysis; assay type: ADME, organism-based; conditions: in vivo
[10] = Plasma concentration in established diet-induced obese wild type C57BL/6 mouse at 30 mg/kg, po qd for 5 days measured on day 6; assay type: ADME, organism-based; set-up: dose 30 mg/kg, route oral
[11] = target: T1, Lysosomal Pro-X carboxypeptidase (Mus musculus); experiment: Inhibition of mouse PrCP in qd for 2 days po dosed established diet-induced obese C57BL/6 mouse heat inactivated plasma; assay type: organism-based
[12] = Half life in rat at 1 mg/kg, iv and 2 mg/kg, po by LC/MS/MS analysis; assay type: ADME, organism-based; conditions: in vivo
[13] = Drug uptake in established diet-induced obese C57BL/6 mouse brain at 10 mg/kg, po qd for 2 days; assay type: ADME, organism-based; set-up: dose 10 mg/kg, route oral; conditions: read-out: Drug uptake
[14] = Plasma concentration in established diet-induced obese C57BL/6 mouse at 30 mg/kg, po qd for 2 days; assay type: ADME, organism-based; set-up: dose 30 mg/kg, route oral
Mus musculus [15] = experiment: Dose normalized AUC in C57BL/6 mouse at 2 mg/kg by LC/MS/MS analysis; assay type: ADME, organism-based; set-up: dose 2 mg/kg; conditions: in vivo
[16] = target: T1, Lysosomal Pro-X carboxypeptidase (Mus musculus); experiment: Inhibition of mouse PrCP in 30 mg/kg, po administered qd for 2 days established diet-induced obese C57BL/6 mouse heat inactivated plasma; assay type: organism-based; set-up: dose 30 mg/kg; conditions: at 30 mg/kg
[17] = Drug uptake in PrCP knockout mouse brain at 30 mg/kg, po qd for 5 days measured on day 6; assay type: ADME, organism-based; set-up: dose 30 mg/kg, route oral; conditions: read-out: Drug uptake
[18] = Fraction unbound in mouse plasma; assay type: ADME, cell-free
[19] = Plasma concentration in established diet-induced obese C57BL/6 mouse at 3 mg/kg, po qd for 2 days; assay type: ADME, organism-based; set-up: dose 3 mg/kg, route oral
[20] = Half life in C57BL/6 mouse at 1 mg/kg, iv and 2 mg/kg, po by LC/MS/MS analysis; assay type: ADME, organism-based; conditions: in vivo
[21] = Drug uptake in established diet-induced obese C57BL/6 mouse brain at 30 mg/kg, po qd for 2 days; assay type: ADME, organism-based; set-up: dose 30 mg/kg, route oral; conditions: read-out: Drug uptake
[22] = target: T2, Lysosomal Pro-X carboxypeptidase; experiment: Inhibition of mouse PrCP
[23] = Drug uptake in established diet-induced obese wild type C57BL/6 mouse brain at 30 mg/kg, po qd for 5 days measured on day 6; assay type: ADME, organism-based; set-up: dose 30 mg/kg, route oral; conditions: read-out: Drug uptake
Canis familiaris = experiment: Dose normalized AUC in dog at 2 mg/kg by LC/MS/MS analysis; assay type: ADME, organism-based, Canis lupus familiaris; set-up: dose 2 mg/kg; conditions: in vivo
[24] = Oral bioavailability in dog at 2 mg/kg by LC/MS/MS analysis; assay type: ADME, organism-based, Canis lupus familiaris; conditions: in vivo
[25] = Plasma concentration in established diet-induced obese C57BL/6 mouse at 10 mg/kg, po qd for 2 days; assay type: ADME, organism-based; set-up: dose 10 mg/kg, route oral
[26] = Ratio of drug level in brain to plasma in wild type CF1 mouse at 3 mg/kg, po after 4 hrs; assay type: ADME, organism-based; set-up: dose 3 mg/kg, route oral; conditions: brain and plasma, read-out: BPR
[27] = Plasma concentration in PrCP knockout mouse at 30 mg/kg, po qd for 5 days measured on day 6; assay type: ADME, organism-based; set-up: dose 30 mg/kg, route oral
[28] = Clearance in C57BL/6 mouse at 1 mg/kg, iv and 2 mg/kg, po by LC/MS/MS analysis; assay type: ADME, organism-based; conditions: in vivo
[29] = Volume of distribution at steady state in C57BL/6 mouse at 1 mg/kg, iv and 2 mg/kg, po by LC/MS/MS analysis; assay type: ADME, organism-based; conditions: in vivo, read-out: Vdss
[30] = Drug uptake in established diet-induced obese C57BL/6 mouse blood at 30 mg/kg, po qd for 2 days; assay type: ADME, organism-based; set-up: dose 30 mg/kg, route oral; conditions: read-out: Drug uptake
[31] = target: T1, Lysosomal Pro-X carboxypeptidase (Mus musculus); experiment: Inhibition of mouse PrCP in 3 mg/kg, po administered qd for 2 days established diet-induced obese C57BL/6 mouse heat inactivated plasma; assay type: organism-based; set-up: dose 3 mg/kg; conditions: at 3 mg/kg
[32] = Volume of distribution at steady state in rat at 1 mg/kg, iv and 2 mg/kg, po by LC/MS/MS analysis; assay type: ADME, organism-based; conditions: in vivo, read-out: Vdss
[33] = Clearance in dog at 1 mg/kg, iv and 2 mg/kg, po by LC/MS/MS analysis; assay type: ADME, organism-based, Canis lupus familiaris; conditions: in vivo
[34] = Oral bioavailability in rat at 2 mg/kg by LC/MS/MS analysis; assay type: ADME, organism-based; conditions: in vivo
[35] = Drug uptake in established diet-induced obese C57BL/6 mouse blood at 3 mg/kg, po qd for 2 days; assay type: ADME, organism-based; set-up: dose 3 mg/kg, route oral; conditions: read-out: Drug uptake
[36] = target: T1, Lysosomal Pro-X carboxypeptidase (Mus musculus); experiment: Inhibition of mouse PrCP in 10 mg/kg, po administered qd for 2 days established diet-induced obese C57BL/6 mouse heat inactivated plasma; assay type: organism-based; set-up: dose 10 mg/kg; conditions: at 10 mg/kg
[37] = target: T1, Lysosomal Pro-X carboxypeptidase (Mus musculus); experiment: Inhibition of mouse PrCP in 30 mg/kg, po qd for 5 days established diet-induced obese wild type C57BL/6 mouse heat inactivated brain homogenates measured on day 6; assay type: organism-based; set-up: dose 30 mg/kg; conditions: at 30 mg/kg
[38] = Volume of distribution at steady state in dog at 1 mg/kg, iv and 2 mg/kg, po by LC/MS/MS analysis; assay type: ADME, organism-based, Canis lupus familiaris; conditions: in vivo, read-out: Vdss
[39] = Half life in dog at 1 mg/kg, iv and 2 mg/kg, po by LC/MS/MS analysis; assay type: ADME, organism-based, Canis lupus familiaris; conditions: in vivo
Rattus norvegicus = experiment: Dose normalized AUC in rat at 2 mg/kg by LC/MS/MS analysis; assay type: ADME, organism-based; set-up: dose 2 mg/kg; conditions: in vivo
[40] = Oral bioavailability in C57BL/6 mouse at 2 mg/kg by LC/MS/MS analysis; assay type: ADME, organism-based; conditions: in vivo

inhibition [1]: 88%
concentration at 48 h [3]: 280 nM
fraction unbound [4]: < 0.0006
Kp at 4 h [5]: 1.9
concentration at 48 h [6]: 30 nM
IC50 [8]: 23 nM
clearance [9]: 11 mL/min/kg
concentration at 120 h [10]: 1420 nM
inhibition [11]: Dose-dependent effect
half-life [12]: 8.9 h
concentration at 48 h [13]: 110 nM
concentration at 48 h [14]: 520 nM
AUC/dose (Mus musculus [15]): 0.28 µM·kg·h/mg
inhibition [16]: 93%
concentration at 120 h [17]: 820 nM
fraction unbound [18]: < 0.0006
concentration at 48 h [19]: 50 nM
half-life [20]: 6.7 h
concentration at 48 h [21]: 520 nM
IC50 [22]: 0.18 nM
concentration at 120 h [23]: 690 nM
AUC/dose (Canis familiaris): 5 µM·kg·h/mg
bioavailability [24]: 88%
concentration at 48 h [25]: 240 nM
Kp at 4 h [26]: 0.94
concentration at 120 h [27]: 1570 nM
clearance [28]: 45 mL/min/kg
Vd [29]: 20 L/kg
concentration at 48 h [30]: 590 nM
inhibition [31]: 53%
Vd [32]: 5.9 L/kg
clearance [33]: 5.9 mL/min/kg
bioavailability [34]: 60%
concentration at 48 h [35]: 80 nM
inhibition [36]: 82%
inhibition [37]: 61%
Vd [38]: 5.5 L/kg
half-life [39]: 14 h
AUC/dose (Rattus norvegicus): 1.8 µM·kg·h/mg
bioavailability [40]: 35%
Compound: FC(F)(F)Oc1ccc(CN2CCC3(CC2)OC(c2cc(Cl)ccn2)c2ccccc23)cc1 (configuration not stated)
Activity (Mus musculus [2]): inactive
Activity (Mus musculus [7]): inactive
